Measured values published in US9770481B2, “Inhibitors of NOX1” (UNIVERSITY OF PITTSBURGH—OF THE COMMONWEALTH SYSTEM OF …, priority 2011, dated 2017).
Ends that are not written are not given here.

Key:
Nox1-YFP = test: Image cross correlation spectroscopy (ICCS) of R-NoxA1ds and Nox1-YFP; assay type: binding; conditions: ICCS, 100 images 0.05 s apart
Procedure: An ELISA of Nox1:NoxA1ds interaction was performed as follows. Neutravidin coated plates were incubated with biotin-tagged NoxA1ds (Biotin-NoxA1ds) or biotin-tagged SCRMB (Biotin-SCRMB) before addition of cell membranes prepared from cells transfected with Nox1 (Nox1 membrane) or transfected with an empty vector (COS22 membrane). Bound Nox1 was detected through a FITC conjugated secondary antibody (αRabbit Ab Sigma F9887) bound to the Nox1 primary antibody (rabbit αNox1 Ab (SC-25545, Santa Cruz Biotechnology)). FITC fluorescence was expressed as binding as % COS22 membranes on each experimental day. […] To further confirm the association, image cross correlation spectroscopy (ICCS) was used to determine patterns in signal fluctuation between rhodamine-labeled NoxA1ds (R-NoxA1ds) and Nox1-YFP though a sequence of 100 images 0.05 s apart. Correlation and cross-correlation was calculated using an ImageJ plugin.

[1] = system: rat aortic smooth muscle cells; test: Calponin and osteopontin expression in stretched rat aortic smooth muscle cells (Western blot); assay type: cell-based; conditions: 10 μM added every four hours; cyclic stretch 24 hrs
Procedure: The effect of Nox1 inhibition on the expression of certain protein markers of rat aortic smooth muscle cell contractile vs. synthetic phenotypes was evaluated. Cells were subjected to 24 hrs of cyclic stretch (10%, 1 Hz) with 10 μM NoxA1ds or SCRMB control being added every four hours. […] Calponin expression during stretch was rescued by the addition of 10 μM NoxA1ds, yet was unaffected by the addition of 10 μM scrambled peptide (SCRMB). A representative Western blot is shown below the graph (FIG. 9B). Osteopontin (OPN, a marker of the […] phenotype), expression increased after 24 hrs of stretch.

[2] = molecular target: T1, interaction between Nox1 and NoxA1 (Homo sapiens, UniProt Q9Y5S8); test: FRET between Nox1-YFP and NoxA1-CFP in transfected COS22 cells; assay type: cell-based; conditions: 10 μM, one hour prior to imaging
T1 construct: expressed in transfected cells; host or cells: COS22
T1 sequence (Q9Y5S8 1-564): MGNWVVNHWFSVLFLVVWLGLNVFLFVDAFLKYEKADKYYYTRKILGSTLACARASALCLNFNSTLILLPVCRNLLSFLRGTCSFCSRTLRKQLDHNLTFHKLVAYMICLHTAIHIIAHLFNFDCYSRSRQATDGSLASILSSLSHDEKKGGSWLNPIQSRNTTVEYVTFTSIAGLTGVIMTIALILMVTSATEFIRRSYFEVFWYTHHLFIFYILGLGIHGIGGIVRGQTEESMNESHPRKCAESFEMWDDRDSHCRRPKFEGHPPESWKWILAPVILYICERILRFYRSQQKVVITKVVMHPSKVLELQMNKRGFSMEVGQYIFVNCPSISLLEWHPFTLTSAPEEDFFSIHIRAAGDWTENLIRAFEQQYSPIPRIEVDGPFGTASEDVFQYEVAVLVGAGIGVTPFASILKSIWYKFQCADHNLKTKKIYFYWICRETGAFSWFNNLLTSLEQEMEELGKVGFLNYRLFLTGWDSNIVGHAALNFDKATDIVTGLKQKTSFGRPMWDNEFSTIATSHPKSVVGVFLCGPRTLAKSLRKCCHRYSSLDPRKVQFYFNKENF
T1 sequence (P13498 2-195 partner limits assumed): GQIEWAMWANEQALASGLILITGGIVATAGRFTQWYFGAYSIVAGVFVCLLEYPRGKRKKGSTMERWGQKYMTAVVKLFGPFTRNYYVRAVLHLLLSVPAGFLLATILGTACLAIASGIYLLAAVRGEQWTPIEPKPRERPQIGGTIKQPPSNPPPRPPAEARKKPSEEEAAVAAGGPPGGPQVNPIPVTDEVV
Procedure: FRET (fluorescence resonance energy transfer) studies were performed to study the effect of NoxA1ds on the interaction between Nox1 and NoxA1: In particular, FRET between Nox1-YFP and NoxA1-CFP transfected COS22 cells in the presence or absence of 10 μM NoxA1ds or SCRMB was evaluated. Relative fluorescence of CFP is green while YFP is red. Traces underneath the images indicate fluorescent intensities of CFP and YFP underneath the arrow overlaid on each cell.

[3] = system: HT-29 colon adenocarcinoma cells; test: O2- production by HT-29 cells (SOD inhibitable reduction of cytochrome c); assay type: cell-based; conditions: increasing doses
[4] = system: human pulmonary artery endothelial cells; test: Hypoxia-induced superoxide production by human pulmonary artery endothelial cells; assay type: cell-based
Procedure: Experiments were also performed to evaluate the effect of NoxA1ds on hypoxia-induced superoxide production by human pulmonary artery endothelial cells.

Nox1 = molecular target: T2, Nox1 (Homo sapiens, UniProt Q9Y5S8); test: O2- production by COS22 cells transfected with Nox1 (cytochrome c reduction); assay type: cell-based; conditions: increasing concentrations
T2 construct: expressed in transfected cells; host or cells: COS22 (monkey kidney COS cells stably expressing human p22phox)
T2 sequence (Q9Y5S8 1-564): T1 sequence (Q9Y5S8 1-564)
T2 sequence (P13498 1-195 partner): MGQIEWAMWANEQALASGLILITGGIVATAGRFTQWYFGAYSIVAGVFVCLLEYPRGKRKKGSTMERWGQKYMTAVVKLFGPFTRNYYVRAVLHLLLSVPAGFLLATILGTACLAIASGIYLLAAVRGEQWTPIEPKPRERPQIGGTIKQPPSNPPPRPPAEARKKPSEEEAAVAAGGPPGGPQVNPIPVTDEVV
Procedure: Experiments were performed to test the effect of NoxA1ds on O2^− production by Nox1. COS22 is a monkey kidney COST cell line expressing transgenic human p22phox and was produced by stable transfection of the full-length p22phox cDNA into parental COST wild-type cells. COS22 cells were transfected with Nox1 to express the Nox1 enzyme and were then treated with either NoxA1ds or its scrambled control (SCRMB). Production of O2^− was calculated by monitoring the reduction of cytochrome c for 15 minutes post NADPH addition and subtracting baseline cytochrome c reduction occurring in the presence of SOD.

Fractional binding of Nox1-YFP and R-NoxA1ds (Nox1-YFP) | Inhibition of Nox1-derived O2- production (Nox1) | Substance | Calponin expression during stretch [1] | Osteopontin (OPN) expression during stretch [1] | CFP fluorescence after photobleaching of Nox1-YFP (FRET) [2] | Inhibition of O2- production by HT-29 cells [3] | O2- production under hypoxia ([4]; hypoxia 1.0% O2, 24 hrs) | O2- production under normoxic conditions ([4]; normoxia)
~1.0 |  | R-NoxA1ds: rhodamine-labeled NoxA1ds (EPVDALGKAKV-NH2; also: rhodamine label, position not given here) |  |  |  |  |  | 
 | did not inhibit | SCRMB: inactive, scrambled version of NoxA1ds (negative control) (H-LVKGPDAEKVA-NH2) [reference compound] | unaffected | unaffected | resulted in a concomitant increase in CFP fluorescence | did not inhibit | unaffected | negligible effect
